For assay [1], the system named is Staphylococcus aureus. The experiment in a line: Antibacterial activity against Staphylococcus aureus ATCC 6538 after 24 hrs. The following applies: ATCC 6538, 24 h. Type of assay: functional.
In assay [2] the test system is Staphylococcus aureus. Kind of assay: Antibacterial activity against methicillin-resistant Staphylococcus aureus ATCC 33591 after 24 hrs. Type of assay: functional. The settings on record: ATCC 33591, 24 h.

≈ marks a conversion by molar mass, not a printed value.

As a reminder, the MIC is the smallest concentration in the dilution series that meets the test's criterion for growth inhibition. A higher MIC goes with weaker potency. For `CC[C@H]1OC(=O)[C@H](C)[C@@H](O[C@H]2C[C@@](C)(OC)[C@@H](O)[C@H](C)O2)[C@H](C)[C@@H](O[C@@H]2O[C@H](C)C[C@H](N(C)C)[C@H]2O)[C@](C)(O)C[C@@H](C)C(=O)[C@H](C)[C@@H](O)[C@]1(C)O` [ERYTHROMYCIN], 1.25 µg/mL (≈ 1.7 µM) was the least that counted as inhibitory against Staphylococcus aureus [1] (MIC). `COc1cc(O)c2c(O)c3c(=O)cc(C)oc3cc2c1C` [QUINQUANGULIN]: the results for the MIC against Staphylococcus aureus [1] and in the assay on Staphylococcus aureus [2] were 3.12 µg/mL (≈ 10.9 µM) and 6.25 µg/mL (≈ 21.8 µM), respectively.

On to `CO[C@H]1/C=C/O[C@@]2(C)Oc3c(C)c(O)c4c(O)c(c(/C=N/N5CCN(C)CC5)c(O)c4c3C2=O)NC(=O)/C(C)=C\C=C\[C@H](C)[C@H](O)[C@@H](C)[C@@H](O)[C@@H](C)[C@H](OC(C)=O)[C@@H]1C` [RIFAMPIN], for which the figures for the MIC against Staphylococcus aureus [1] and with Staphylococcus aureus [2] were 0.005 µg/mL (≈ 0.00608 µM) and less than 0.005 µg/mL, respectively.
